Assay results: US20060183794A1, “Drug composition containing nf-kb inhibitor” (priority 2002, published 2006)

Key:
[1] = biological target: T1, NF-κB (Homo sapiens, UniProt P19838+Q04206); assay: Gel shift assay of constitutive NF-κB activation in Hodgkin's lymphoma cell lines; format: cell-based; set-up: endogenous in cells; host or cells: HL cell lines KMH2, L428, L540, HDLM2 (A30: KMH2 treated with antitumor agents)
Experimental: (§1) The ATL cell lines (MT-1 and TL-Om1) and the control cell lines (K562 and Jurkat+TNF), 2×10^6 cells each, were treated with 10 μg/ml DHM2EQ for 12 hours, and nuclear extract was prepared from each cell line. Likewise, nuclear extract was prepared also from the cell lines not treated with DHM2EQ. MT-1 and TL-Om1 are the cell lines transformed with HTLV-1; NF-κB is activated in these cell lines. K562 (myelocytic leukemia cell line) is a cell line in which constitutive NF-κB is not confirmed (a negative control), and Jurkat+TNF is a […] consensus oligomers (Promega) were end-labeled with [γ-^32P]-ATP and polynucleotide kinase (PNK) to prepare ^32P-labeled NF-κB probes.
(§2) The equivalent of 2 μg of nuclear extract protein was mixed with NF-κB probes (the equivalent of 10,000 cpm) in a volume of 20 μl and reacted at room temperature for 30 min. The solution after the reaction was subjected to 7.5% polyacrylamide gel electrophoresis. The gel was then dried and exposed to an X-ray film.
The HL cell lines, KMH2, L428, L540, and HDLM2, and the control cell line K562 (2×10^6 cells each) were treated with 10 μg/ml DHMEQ for 12 hours, and nuclear extract was prepared from each cell line. The gel shift assay was performed in the same method as in Example 4 (1) and the inhibitory effect on NF-κB was examined. […] Cell line K562 (myelocytic leukemia cell line) is a cell line in which constitutive activation of NF-κB is not observed, and thus used as the negative control. On the other hand, the TNF-treated Jurkat (Jurkat+TNF) was used as the positive control.
Next, the HL cell lines KMH2 and L540 were treated with 10 μg/ml DHMEQ and nuclear extract was prepared from each cell line. The gel shift assay was performed in the same method as in Example 4 (1) and the time-course inhibitory effect on NF-κB was examined.
Thus, investigation was performed to determine whether these signals have NF-κB-specific subunits of DHMEQ resistance. Further, the HL cell lines, KMH2, L428L-540, and HDLM2 were treated with 5 μg/ml DHMEQ for 12 hours, and the remaining component of NF-κB was supershifted with antibodies against p50, p65, and c-Rel according to the same method as described in Example 1.
Target sequence in this assay (P19838 1-433 limits assumed): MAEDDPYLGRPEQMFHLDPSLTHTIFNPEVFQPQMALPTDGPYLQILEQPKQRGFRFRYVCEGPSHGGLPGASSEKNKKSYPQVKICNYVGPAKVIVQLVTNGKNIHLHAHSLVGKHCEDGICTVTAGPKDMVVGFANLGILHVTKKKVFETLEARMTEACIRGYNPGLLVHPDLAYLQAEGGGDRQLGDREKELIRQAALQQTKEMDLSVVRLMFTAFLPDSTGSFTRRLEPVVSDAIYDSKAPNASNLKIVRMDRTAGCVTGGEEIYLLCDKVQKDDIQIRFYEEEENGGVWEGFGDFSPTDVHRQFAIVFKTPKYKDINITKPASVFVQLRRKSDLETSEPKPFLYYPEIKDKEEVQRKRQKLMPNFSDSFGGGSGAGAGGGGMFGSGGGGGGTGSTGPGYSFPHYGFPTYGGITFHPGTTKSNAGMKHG
Target sequence in this assay (Q04206 whole entry): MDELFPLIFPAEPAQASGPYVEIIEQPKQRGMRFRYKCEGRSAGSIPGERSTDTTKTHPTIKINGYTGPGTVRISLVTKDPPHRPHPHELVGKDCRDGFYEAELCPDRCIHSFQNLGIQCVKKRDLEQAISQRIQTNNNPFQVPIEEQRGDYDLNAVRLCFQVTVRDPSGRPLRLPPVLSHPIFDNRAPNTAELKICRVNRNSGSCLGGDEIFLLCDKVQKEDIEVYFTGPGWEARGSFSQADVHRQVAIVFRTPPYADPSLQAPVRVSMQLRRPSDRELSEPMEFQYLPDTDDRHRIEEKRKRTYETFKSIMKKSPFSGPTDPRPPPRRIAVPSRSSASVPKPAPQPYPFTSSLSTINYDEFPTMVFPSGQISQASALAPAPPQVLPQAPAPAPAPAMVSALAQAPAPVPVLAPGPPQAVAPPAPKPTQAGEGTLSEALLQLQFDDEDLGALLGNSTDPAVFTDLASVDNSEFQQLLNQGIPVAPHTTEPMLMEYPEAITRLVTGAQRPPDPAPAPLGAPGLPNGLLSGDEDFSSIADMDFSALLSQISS

[2] = test system: MM cell lines, KMM1, RPMI8226, and U266; assay: Apoptosis of multiple myeloma cell lines (Annexin-V, Hoechst staining); format: cell-based
Experimental: Further, to investigate apoptosis induction of MM cell lines by DHMEQ, the MM cell lines, KMM1, RPMI8226, and U266, were incubated for 0, 24, and 48 hours at a concentration of 10 μg/ml and the apoptosis was examined by Annexin-V staining.
Further, to confirm apoptosis induction in MM cell lines by DHMEQ, the MM cell lines, KMM1, RPMI8226, and U266, were incubated for 72 hours at a concentration of 10 μg/ml and the apoptosis was examined by observing nuclear condensation or fragmentation with a fluorescence microscope, using Hoechst staining.

[3] = test system: multiple myeloma cell line 196TIB; assay: MTT assay, proliferation of multiple myeloma cell line 196TIB; format: cell-based
Experimental: (§3) Cells from the ATL cell lines (MT-1 and TL-Om1) and a control cell line (K562) were plated in 96-well plates at 1×10^5 cells/well and DHM2EQ was added at the desired final concentrations (2, 5, and 10 μg/ml). Cells to which the solvent DMSO had been added in equal volume (0 μg/ml) were used as […] incubation for 72 hours, cell viability was judged by the MTT assay. Relative MTT values were obtained as the ratio of the MMT values of DHM2EQ-treated cells to those of DHM2EQ-untreated cells, i.e., (MTT values of DHM2EQ-treated cells/MTT values of DHM2EQ-untreated cells)×100(%).
Concentration dependence analysis of the inhibitory effect of DHM2EQ on proliferation of multiple myeloma cells was performed in the same manner as in Example 2. As multiple myeloma cells, the multiple myeloma cell line 196TIB was used.

[4] = biological target: T1, NF-κB; assay: Gel shift assay (EMSA) of NF-κB activation in stimulated HUVECs; format: cell-based; set-up: endogenous in cells; host or cells: MCF-7 cells treated with TNF-α; conditions: DHMEQ 3 μg/ml, 2 h pretreatment
Excerpt: HUVECs were pretreated with DHMEQ as follows. […] Nuclear extract was thus obtained.
Target sequence in this assay (Q04206 whole entry): as above
Target sequence in this assay (P19838 1-433 limits assumed): as the sequence (P19838 1-433 limits assumed) above

[5] = test system: HUVECs; assay: Toxicity to and proliferation of HUVECs; format: cell-based, human; conditions: DHMEQ 3 μg/ml
[6] = biological target: T1, NF-κB; assay: Gel shift assay of constitutive NF-κB activation in ATL cell lines; format: cell-based; set-up: endogenous in cells; conditions: MT-1 and TL-Om1; 10 μg/ml DHM2EQ, 12 hours
Experimental: as §1, §2
Target sequence in this assay (Q04206 whole entry): as the sequence (Q04206 whole entry) above
Target sequence in this assay (P19838 1-433 limits assumed): as the sequence (P19838 1-433 limits assumed) above

[7] = test system: MM cells (MM1, MM2, and MM3) of multiple myeloma patients; assay: MTT assay, MM cells from patients' bone marrow; format: cell-based, human; conditions: 10 μg/ml, 48 hours
Experimental: Next, to investigate the inhibitory effect of DHMEQ on proliferation of cells of multiple myeloma (MM) patients, MM cells (MM1, MM2, and MM3) were isolated from patients' bone marrow, incubated for 48 hours at the DHMEQ concentration of 10 μg/ml, and the proliferation-inhibitory effect was examined by the MTT assay. Peripheral blood mononuclear cells (PBMC) isolated from normal peripheral blood were used as control cells. In the figure, the vertical axis indicates the relative values of the MTT values of treated cells versus untreated cells, i.e., (DHMEQ-treated/untreated)×100%.

[8] = test system: K562 (myelocytic leukemia cell line); assay: MTT assay, proliferation of control cell line K562; format: cell-based
Experimental: as §3
DHM2EQ was added to the ATL cell lines (MT-1 and TL-Om1) and a control cell line (K562) at a final concentration of 10 μg/ml and the cells were incubated for 12, 24, 48, and 72 hours. The proliferation-inhibitory effect was examined by the MTT assay. Cells to which the solvent DMSO had been added in equal volume were used as controls. Relative MTT values were obtained in the same manner as the aforementioned (1).
Time-course analysis and concentration dependence analysis of the inhibitory effect of DHM2EQ on proliferation of Hodgkin's lymphoma cells were performed in the same manner as in Example 2. As Hodgkin's lymphoma cells, the Hodgkin's lymphoma cell lines KMH-2 and L-540 were used.

O=C(NC1=CC(=O)C2OC2C1O)c1ccccc1O (stereo not shown) [DHMEQ, 5,6-epoxy-4-hydroxy-3-salicyloylamino-2-cyclohexenone]
signals by NF-κB (gel shift) ([1]; KMH2, L428, L540, HDLM2, 10 μg/ml, 12 hours): almost lost
persistence of inhibition of NF-κB activation ([1]; KMH2 and L540, 10 μg/ml): sustained even after a lapse of 16 hours
activation of NF-κB, time course (gel shift) ([1]; KMH2 and L540, 10 μg/ml, 1 hour after treatment): almost inhibited
remaining NF-κB signals after DHMEQ treatment ([1]; L428 and KMH2): weak signals remain
apoptosis (Annexin-V staining) ([2]; 10 μg/ml, 0, 24, 48 hours): apoptosis had been induced
apoptosis (Hoechst staining, nuclear fragmentation) ([2]; 10 μg/ml, 72 hours): images of nuclear fragmentation by DHMEQ treatment were observed
cell proliferation, concentration dependence [3]: inhibited in proportion to the DHM2EQ concentrations added
activation of NF-κB in HUVECs caused by TNF-α, IL-1β, and LPS [4]: completely suppressed
toxicity to HUVECs and suppression of their proliferation [5]: neither exhibited toxicity to HUVECs nor suppressed their proliferation
signal of NF-κB (gel shift) [6]: almost lost
proliferation of MM cells from patients (MTT) [7]: proliferation was suppressed
cell proliferation, time course (MTT) ([8]; 10 μg/ml, 12, 24, 48, 72 hours, listed as DHM2EQ): hardly inhibited even after time had elapsed
cell proliferation, concentration dependence (MTT) ([8]; 2, 5, 10 μg/ml, 72 hours): hardly inhibited
